ChEMBL document CHEMBL6078611, “A potent GPX4 degrader to induce ferroptosis in HT1080 cells” (Eur J Med Chem, 2024)
Values belong to the compound of their own block, whether it stands above or below them. The source made the active and inactive calls. The calls are words filed in the database; no cut-off is given here.

Experiments:
HT-1080 [1] = assay: Antiproliferative activity against human HT-1080 cells assessed as reduction in cell viability at 7.5 uM incubated for 48 hrs in presence of NAC by CCK-8 assay; type: functional, cell-based
HT-1080 [2] = assay: Induction of ferroptosis in human HT-1080 cells assessed as lipid peroxide accumulation at 10 uM in presence of FeCl2 by BODIPY 581/591C11 staining based analysis; type: functional, cell-based
HT-1080 [3] = assay: Antiproliferative activity against human HT-1080 cells assessed as reduction in cell viability at 7.5 uM incubated for 48 hrs in presence of DFOM by CCK-8 assay; type: functional, cell-based
HT-1080 [4] = assay: Induction of ferroptosis in human HT-1080 cells assessed as lipid peroxide accumulation at 10 uM in presence of NAC by BODIPY 581/591C11 staining based analysis; type: functional, cell-based
Mitochondrial membrane [5] = assay: Induction of mitochondrial membrane potential loss in human HT-1080 cells incubated for 48 hrs by JC-1 staining based flow cytometry analysis; type: cell membranes; details: dose 0.6-10 µM
HT-1080 [6] = assay: Antiproliferative activity against human HT-1080 cells assessed as reduction in cell viability at 7.5 uM incubated for 48 hrs in presence of Fer-1 by CCK-8 assay; type: functional, cell-based
HT-1080 [7] = assay: Antiproliferative activity against human HT-1080 cells assessed as induction of cell death incubated for 48 hrs in presence of Z-VAD-FMK by CCK-8 assay; type: functional, cell-based
[8] = target: T1, Baculoviral IAP repeat-containing protein 2/Phospholipid hydroperoxide glutathione peroxidase GPX4 (Homo sapiens, UniProt Q13490+P36969); assay: Protac activity at cIAP/GPX4 in human HT-1080 cells assessed as degradation of GPX4 incubated for 48 hrs by Western blot analysis; type: cell-based
Target sequence in this assay (Q13490 whole entry): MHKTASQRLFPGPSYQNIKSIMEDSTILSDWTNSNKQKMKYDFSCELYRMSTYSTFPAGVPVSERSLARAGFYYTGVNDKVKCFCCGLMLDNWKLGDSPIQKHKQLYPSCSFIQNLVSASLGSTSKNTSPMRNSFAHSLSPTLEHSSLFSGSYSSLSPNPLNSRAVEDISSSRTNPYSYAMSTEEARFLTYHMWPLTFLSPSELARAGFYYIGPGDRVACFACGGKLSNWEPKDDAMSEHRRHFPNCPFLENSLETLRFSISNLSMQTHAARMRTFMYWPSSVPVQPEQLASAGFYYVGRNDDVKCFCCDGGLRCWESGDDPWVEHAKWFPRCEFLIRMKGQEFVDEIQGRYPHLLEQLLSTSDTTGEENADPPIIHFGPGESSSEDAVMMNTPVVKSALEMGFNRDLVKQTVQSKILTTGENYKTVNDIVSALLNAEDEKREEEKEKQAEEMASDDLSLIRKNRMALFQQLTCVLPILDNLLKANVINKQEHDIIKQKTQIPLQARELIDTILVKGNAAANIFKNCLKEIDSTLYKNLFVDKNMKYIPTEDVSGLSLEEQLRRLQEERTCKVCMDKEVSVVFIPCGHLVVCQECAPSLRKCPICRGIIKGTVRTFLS
Target sequence in this assay (P36969 whole entry): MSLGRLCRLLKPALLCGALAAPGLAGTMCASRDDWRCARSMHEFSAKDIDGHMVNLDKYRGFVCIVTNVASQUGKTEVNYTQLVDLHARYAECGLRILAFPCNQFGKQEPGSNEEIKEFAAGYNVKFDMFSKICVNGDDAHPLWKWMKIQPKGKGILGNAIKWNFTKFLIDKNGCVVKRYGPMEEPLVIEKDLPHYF

[9] = target: T1, Baculoviral IAP repeat-containing protein 2/Phospholipid hydroperoxide glutathione peroxidase GPX4; assay: Protac activity at cIAP/GPX4 in human HT-1080 cells assessed as degradation of GPX4 at 5 uM preincubated with chloroquine for 4 hrs followed by compound addition and measured after 48 hrs by Western blot analysis; type: cell-based
Target sequence in this assay (P36969 whole entry, looked up): as the sequence (P36969 whole entry) above
Target sequence in this assay (Q13490 whole entry, looked up): as the sequence (Q13490 whole entry) above

HT-1080 [10] = assay: Induction of ferroptosis in human HT-1080 cells assessed as lipid peroxide accumulation by BODIPY 581/591C11 staining based analysis; type: functional, cell-based; details: dose 0.6-10 µM
HT-1080 [11] = assay: Antiproliferative activity against human HT-1080 cells assessed as reduction in cell viability incubated for 48 hrs by CCK-8 assay; type: functional, cell-based; details: HT-1080, 48 h
[12] = target: T1, Baculoviral IAP repeat-containing protein 2/Phospholipid hydroperoxide glutathione peroxidase GPX4; assay: Protac activity at cIAP/GPX4 in human HT-1080 cells assessed as degradation of GPX4 at 5 uM preincubated with RSL3 for 4 hrs followed by compound addition and measured after 48 hrs by Western blot analysis; type: cell-based
Target sequence in this assay (P36969 whole entry, looked up): as the sequence (P36969 whole entry) above
Target sequence in this assay (Q13490 whole entry, looked up): as the sequence (Q13490 whole entry) above

[13] = target: T1, Baculoviral IAP repeat-containing protein 2/Phospholipid hydroperoxide glutathione peroxidase GPX4; assay: Protac activity at cIAP/GPX4 in human HT-1080 cells assessed as degradation of GPX4 at 5 uM preincubated with MG132 for 4 hrs followed by compound addition and measured after 48 hrs by Western blot analysis; type: cell-based
Target sequence in this assay (P36969 whole entry, looked up): as the sequence (P36969 whole entry) above
Target sequence in this assay (Q13490 whole entry, looked up): as the sequence (Q13490 whole entry) above

Mitochondrial membrane [14] = assay: Induction of mitochondrial membrane potential loss in human HT-1080 cells at 10 uM incubated for 48 hrs in presence of DFOM by JC-1 staining based flow cytometry analysis; type: cell membranes
HT-1080 [15] = assay: Induction of ferroptosis in human HT-1080 cells assessed as lipid peroxide accumulation at 10 uM in presence of Fer-1 by BODIPY 581/591C11 staining based analysis; type: functional, cell-based
[16] = target: T1, Baculoviral IAP repeat-containing protein 2/Phospholipid hydroperoxide glutathione peroxidase GPX4; assay: Protac activity at cIAP/GPX4 in human HT-1080 cells assessed as degradation of GPX4 at 5 uM by Western blot analysis; type: cell-based; details: time 12-72 hrs
Target sequence in this assay (P36969 whole entry, looked up): as the sequence (P36969 whole entry) above
Target sequence in this assay (Q13490 whole entry, looked up): as the sequence (Q13490 whole entry) above

[17] = target: T1, Baculoviral IAP repeat-containing protein 2/Phospholipid hydroperoxide glutathione peroxidase GPX4; assay: Protac activity at cIAP/GPX4 in human HT-1080 cells assessed as degradation of GPX4 at 5 uM preincubated with MLN4924 for 4 hrs followed by compound addition and measured after 48 hrs by Western blot analysis; type: cell-based
Target sequence in this assay (P36969 whole entry, looked up): as the sequence (P36969 whole entry) above
Target sequence in this assay (Q13490 whole entry, looked up): as the sequence (Q13490 whole entry) above

[18] = target: T1, Baculoviral IAP repeat-containing protein 2/Phospholipid hydroperoxide glutathione peroxidase GPX4; assay: Protac activity at cIAP/GPX4 in human HT-1080 cells assessed as degradation of GPX4 at 5 uM preincubated with cIAP ligand B4 for 4 hrs followed by compound addition and measured after 48 hrs by Western blot analysis; type: cell-based
Target sequence in this assay (P36969 whole entry, looked up): as the sequence (P36969 whole entry) above
Target sequence in this assay (Q13490 whole entry, looked up): as the sequence (Q13490 whole entry) above

HT-1080 [19] = assay: Induction of ferroptosis in human HT-1080 cells assessed as lipid peroxide accumulation at 10 uM in presence of DFOM by BODIPY 581/591C11 staining based analysis; type: functional, cell-based
[20] = target: T1, Baculoviral IAP repeat-containing protein 2/Phospholipid hydroperoxide glutathione peroxidase GPX4; assay: Protac activity at cIAP/GPX4 in human HT-1080 cells assessed as degradation of GPX4 at 10 uM incubated for 48 hrs by Western blot analysis relative to control; type: cell-based
HEK-293T = assay: Cytotoxicity against HEK293T cells assessed as reduction in cell viability at 40 uM incubated for 48 hrs by CCK-8 assay; type: toxicity, cell-based; details: human
Mitochondrial membrane [21] = assay: Induction of mitochondrial membrane potential loss in human HT-1080 cells at 10 uM incubated for 48 hrs in presence of NAC by JC-1 staining based flow cytometry analysis; type: cell membranes
[22] = target: T1, Baculoviral IAP repeat-containing protein 2/Phospholipid hydroperoxide glutathione peroxidase GPX4; assay: Protac activity at cIAP/GPX4 in human HT-1080 cells assessed as degradation of GPX4 at 5 uM measured upto 12 hrs after compound washout by Western blot analysis; type: cell-based
HT-1080 [23] = assay: Synergistic antiproliferative activity against human HT-1080 cells assessed as induction of cell death at 3.75 uM incubated for 48 hrs in presence of FeCl2 by CCK-8 assay; type: functional, cell-based
[24] = target: T1, Baculoviral IAP repeat-containing protein 2/Phospholipid hydroperoxide glutathione peroxidase GPX4; assay: Protac activity at cIAP/GPX4 in human HT-1080 cells assessed as degradation of GPX4 at 3 uM incubated for 4 hrs by Western blot analysis; type: cell-based
[25] = Cytotoxicity against HEK293T cells assessed as reduction in cell viability incubated for 48 hrs by CCK-8 assay; type: toxicity, cell-based, HEK-293T; details: human
HT-1080 [26] = assay: Protac activity at MDM2/GPX4 in human HT-1080 cells assessed as degradation of GPX4 at 10 uM by Western blot analysis relative to control; type: cell-based

- Activity (Mitochondrial membrane [5]): Dose-dependent-effect
- DC50 [8]: 1680 nM
- Activity [9]: inactive
- IC50 (HT-1080 [11]): 2370 nM
- Activity [12]: inactive
- Activity [13]: inactive
- Activity (Mitochondrial membrane [14]): inactive
- Activity [16]: Time-dependent-effect
- Activity [17]: inactive
- Activity [18]: inactive
- Emax [20]: 85%
- Activity (Mitochondrial membrane [21]): inactive
- Activity [22]: Active
Structure (SMILES): COC(=O)[C@H](CC(C)C)NC(=O)[C@@H](O)[C@@H](Cc1ccccc1)NC(=O)CCCCCCCn1cc(CNC(=O)c2ccc([C@H]3c4[nH]c5ccccc5c4C[C@H](C(=O)OC)N3C(=O)CCl)cc2)nn1
- Activity (HT-1080 [1]): inactive
- Activity (HT-1080 [2]): inactive
- Activity (HT-1080 [3]): inactive
- Activity (HT-1080 [4]): inactive
- Activity (HT-1080 [6]): inactive
- Activity (HT-1080 [7]): Active
- Activity (HT-1080 [10]): Dose-dependent-effect
- Activity (HT-1080 [15]): inactive
- Activity (HT-1080 [19]): inactive
- Activity (HEK-293T): Toxic
- Activity (HT-1080 [23]): Active

- Activity [24]: inactive
- IC50 (HT-1080 [11]): 1550 nM
Structure (SMILES): COC(=O)c1ccc([C@H]2c3[nH]c4ccccc4c3C[C@H](C(=O)OC)N2C(=O)CCl)cc1
- IC50 at 48 h [25]: 10800 nM

Structure (SMILES): COC(=O)[C@H]1Cc2c([nH]c3ccccc23)[C@H](c2ccc(C(=O)NCc3cn(CCOCCNC(=O)CN4CCN(C(=O)N5C(c6ccc(OC)cc6OC(C)C)=N[C@H](c6ccc(Cl)cc6)[C@@H]5c5ccc(Cl)cc5)CC4=O)nn3)cc2)N1C(=O)CCl
- Activity (HT-1080 [26]): 60%

- DC50 [8]: 4220 nM
- Emax [20]: 75%
Structure (SMILES): COC(=O)c1ccc([C@H]2c3[nH]c4ccccc4c3C[C@H](C(=O)NCc3cn(CCCCCC(=O)N[C@H](Cc4ccccc4)[C@H](O)C(=O)N[C@@H](CC(C)C)C(=O)OC)nn3)N2C(=O)CCl)cc1
